Like-named read-outs stand apart in the source and are kept apart here.

The values below come from US20150322082A1, “NOVEL COMPOUNDS AS DIACYLGLYCEROL ACYLTRANSFERASE INHIBITORS” (GLAXOSMITHKLINE LLC, priority 2012, published 2015).

Series [1] has as its target T1, Human DGAT1 (Homo sapiens, UniProt O75907).
T1 construct: made in house; host or cells: Sf9 insect cells (baculovirus); microsomes
T1 sequence (O75907 1-488): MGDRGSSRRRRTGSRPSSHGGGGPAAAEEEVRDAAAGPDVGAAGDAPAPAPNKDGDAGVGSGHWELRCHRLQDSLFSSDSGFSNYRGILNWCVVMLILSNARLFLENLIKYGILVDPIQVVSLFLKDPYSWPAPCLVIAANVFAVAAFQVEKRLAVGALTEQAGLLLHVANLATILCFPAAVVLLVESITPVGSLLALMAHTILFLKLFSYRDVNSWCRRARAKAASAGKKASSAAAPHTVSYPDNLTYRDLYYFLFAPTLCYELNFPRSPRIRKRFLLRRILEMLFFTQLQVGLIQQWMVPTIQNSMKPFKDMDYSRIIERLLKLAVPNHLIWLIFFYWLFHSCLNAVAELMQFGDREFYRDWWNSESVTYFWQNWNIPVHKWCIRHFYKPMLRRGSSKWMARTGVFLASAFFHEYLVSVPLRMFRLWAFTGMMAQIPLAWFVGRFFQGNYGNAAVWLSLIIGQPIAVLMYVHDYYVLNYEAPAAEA
Kind of series: Human DGAT1 lipid extraction (LE) assay, inhibition of triacylglycerol product formation. Format: biochemical. The settings on record: human DGAT1 microsomes from Sf9 cells, read-out: hDGAT LE IC50. As to the method:
Human DGAT1 was expressed in Sf9 insect cells using a baculovirus expression system. Microsomes were prepared and used as enzyme for in vitro inhibition testing in either of two formats measuring production of coenzyme A or tridecanoylglycerol product, respectively. All steps were performed at 21-23° C. All data for DGAT1 inhibition by test compounds were collected under conditions where product formation was linear with reaction time.
Some assays were performed with inclusion of didecanoylglycerol in the pre-reaction incubation of test compounds and enzyme. […] Extraction of tridecanoylglycerol product was accomplished via addition of 30 uL Microscint-E (Perkin Elmer) and 2 hours of incubation (sealed). Plates were read on a Microbeta Microplate reader. Inhibition was normalized to controls containing DMSO or 10 uM {4-[4-(4-amino-7,7-dimethyl-7H-pyrimido[4,5-b][1,4]oxazin-6-yl)phenyl]cyclohexyl}acetic acid. IC50s were fitted using GraphPad Prism to a sigmoidal dose response.

A short description of series [2]: Pharmacokinetic assay in rats (Rat IV and PO PK). The settings on record: male, Crl:CD (SD), plasma; for bioavailability: 2 mg/kg, absolute oral bioavailability from oral and intravenous AUC0-inf, normalized for dose, read-out: Rat % F. Format: in vivo. The procedure: Pharmacokinetic Assay in Rats (Rat IV and PO PK)
Male Crl:CD (SD) rats were housed individually in cages with clean bedding in a controlled environment (22 to 25° C. temperature, humidity of 30-70% RH, and a 12 hour light/12 hour dark cycle). Certified rodent diet was provided ad libitum to the rats. Rats were fasted overnight 14-16 hours prior to the dosing on each study day and fed approximately 4 hours post dose (following collection of the 4 hour blood sample). Water was available ad libitum. Normal healthy rats certified by the attending veterinarian were selected and acclimatized for a minimum of three days prior to initiation of the study. Rats were randomized according to the body weight and were identified with body markings.
Intravenous formulation of 1 mg/mL concentration was prepared in DMA (N,N-Dimethylacetamide):TEG (Tetraethylene glycol): Water for Injection (20:40:40) freshly on study day. Animals were dosed through tail vein to achieve a target dose of 1 mg/kg. Oral suspension at a target concentration of 2 mg/mL was prepared freshly in Tween 80 (2%) and 0.5% MC (Methylcellulose) (2:98) on the study day. Animals in the intravenous dosing group were dosed through tail vein to achieve a target dose of 1 mg/kg, and the animals in oral dosing group were dosed orally by an oral gavage needle to achieve a target dose of 2 mg/kg. The actual dose volume was based on the body weight obtained on the study day. On the study day, blood samples (approx. 300 μL/time point) were collected at 0.083, 0.25, 0.5, 1, 2, 4, 8 and 24 hours after intravenous bolus dose, and 0.25, 0.5, 1, 2, 4, 8 and 24 hours after dosing of oral gavage and transferred to a pre-labeled K2EDTA coated tubes. Blood volume was replaced with administration of equal volume of saline through the jugular vein. After collection of blood samples at each time point, the blood samples were stored immediately on ice, in chilled Cryoracks and centrifuged at 2320 g at 4° C. for 15 minutes. The plasma was separated and transferred to pre-labeled micro-centrifuge tubes and promptly frozen at −80+10° C. until bioanalysis.
The plasma concentrations were determined by using a fit for purpose analytical method based on protein precipitation, followed by LC-MS/MS analysis. Analyst Version 1.5.1 software was used to acquire and quantify data. Pharmacokinetic analysis of plasma concentration-time data was performed by a non-compartmental method using Pheonix WinNonLin™ (WLN) Version 6.3.
The area under the plasma concentration-time curve (AUC) from the time of dosing to the last quantifiable time point (AUC0-1) was determined by WLN using linear logarithmic trapezoidal rule. Terminal half life (T1/2) was determined by WLN using linear logarithmic trapezoidal rule for plasma concentrations following intravenous administration. The Absolute oral bioavailability (% F) was calculated by mathematical comparison of oral and intravenous AUC0-inf, normalized for dose.

Where [3] appears, read: intravenous (tail vein), target dose 1 mg/kg, read-out: Rat IV AUC.
The mark [4] stands for this setting: oral gavage, target dose 2 mg/kg, read-out: Rat PO AUC.

`Cc1cnc(-n2ccc3cc(N4CCOc5ncnc(N)c5C4=O)cc(C4CC4)c32)nc1` [Example 37, 4-Amino-6-(7-cyclopropyl-1-(5-methylpyrimidin-2-yl)-1H-indol-5-yl)-7,8-dihydropyrimido[5,4-f][1,4]oxazepin-5(6H)-one]: in series [1], the IC50 (as a rule, the midpoint of a concentration-inhibition curve) is 11.7 nM. Also, the values for the area under the curve (AUC) in series [2] (setting [3]) and in series [2] (setting [4]) were 11700 ng·h/mL and 11600 ng·h/mL, respectively. The bioavailability in series [2] was determined as 54.6%.
For the molecule `CC(C)(O)c1ccc(-n2ccc3cc(N4CCOc5ncnc(N)c5C4=O)ccc32)cn1` [Example 38, 4-Amino-6-(1-(6-(2-hydroxypropan-2-yl)pyridin-3-yl)-1H-indol-5-yl)-7,8-dihydropyrimido[5,4-f][1,4]oxazepin-5(6H)-one], in series [1], the IC50 came out at 29 nM. The AUC (usually concentration integrated over time) in series [2] (setting [3]) came to 2140 ng·h/mL; in series [2] (setting [4]), 4020 ng·h/mL. In series [2], the bioavailability amounted to 89%.
As for `COC(C)(C)Cn1ccc2cc(N3CCOc4ncnc(N)c4C3=O)ccc21` [Example 39, 4-amino-6-(1-(2-methoxy-2-methylpropyl)-1H-indol-5-yl)-7,8-dihydropyrimido[5,4-f][1,4]oxazepin-5(6H)-one], the IC50 in series [1] is 42.3 nM.
With `CC(C)(O)Cn1ccc2cc(N3CCOc4ncnc(N)c4C3=O)cc(C3CC3)c21` [Example 40, 4-amino-6-(7-cyclopropyl-1-(2-hydroxy-2-methylpropyl)-1H-indol-5-yl)-7,8-dihydropyrimido[5,4-f][1,4]oxazepin-5(6H)-one], the IC50 in series [1] was found to be 7.5 nM.
For `CCOc1ncc(-n2ccc3cc(N4CCOc5ncnc(N)c5C4=O)ccc32)cn1` [Example 41], in series [1], the IC50 amounted to 23.8 nM.
`Nc1ncnc2c1C(=O)N(c1ccc3c(ccn3-c3ccc(C(F)(F)F)nc3)c1)CCO2` [WO12/162129, Ex 83, 4-amino-6-(1-(6-(trifluoromethyl)pyridin-3-yl)-1H-indol-5-yl)-7,8-dihydropyrimido[5,4-f][1,4]oxazepin-5(6H)-one]: the results for the exposure (AUC) in series [2] (setting [3]) and in series [2] (setting [4]) were 3380 ng·h/mL and 3860 ng·h/mL, respectively. The bioavailability in series [2] came to 30.4%.
For the molecule `Nc1ncnc2c1C(=O)N(c1ccc3c(ccn3-c3ccc(C(F)(F)F)cn3)c1)CCO2` [WO12/162129, Ex 88, 4-amino-6-(1-(5-(trifluoromethyl)pyridin-2-yl)-1H-indol-5-yl)-7,8-dihydropyrimido[5,4-f][1,4]oxazepin-5(6H)-one], the results for the AUC in series [2] (setting [3]) and in series [2] (setting [4]) were 3780 ng·h/mL and 1780 ng·h/mL, respectively. In addition, the bioavailability in series [2] is 12.5%.
The like results for `Cc1ccc(-n2ccc3cc(N4CCOc5ncnc(N)c5C4=O)ccc32)cn1` [WO12/162129, Ex 102, 4-amino-6-(1-(6-methylpyridin-3-yl)-1H-indol-5-yl)-7,8-dihydropyrimido[5,4-f][1,4]oxazepin-5(6H)-one] were, in that order, 975 ng·h/mL, 2490 ng·h/mL and 65.6%.
